Measured values: paper PMC5306082, “Physiologically based kinetic modeling of the bioactivation of myristicin” (Archives of Toxicology, 2016)

Assays:
[1] = Glucuronidation of 1′-hydroxymyristicin, male rat liver S9; type: in vitro ADME
Experimental: The kinetic constants for the metabolic conversion of 1′-hydroxymyristicin to 1′-hydroxymyristicin glucuronide (HMG) by both male rat and human liver fractions were determined as described previously for the related 1′-hydroxyalkenylbenzenes (Punt et al. [2008]; van den Berg et al. [2012]; Punt et al. [2009]; Martati et al. [2011], [2012]; Al-Subeihi et al. [2011], [2012]). Briefly, incubations contained (final concentrations) 10 mM of UDPGA and 0.5 mg/ml of male Sprague–Dawley or pooled gender human S9 protein in 0.2 M Tris–HCl (pH 7.4) containing 10 mM of MgCl2. To overcome enzyme latency and to obtain maximal glucuronidation activity, incubations containing S9 were pretreated on ice with 0.025 mg/ml alamethicin added from a 200 times concentrated stock dissolved in methanol (Fisher et al. [2000]; Lin and Wong [2002]). After 15 min of alamethicin treatment, samples were pre-incubated at 37 °C for 1 min, and reactions were subsequently started by adding 1′-hydroxymyristicin at final concentrations of 10 to 1200 μM. 1′-Hydroxymyristicin was added from 100 times concentrated stock solutions in DMSO. The reaction mixtures were incubated for 30 and 180 min for rat and human, respectively, and terminated by adding 25 µl (0.25 times the incubation volume) of ice-cold ACN. Blank incubations were carried out in the absence of the cofactor UDPGA. Experiments were performed in triplicate. The longer incubation time in human samples was required due to the lower rate of glucuronidation. The formation of 1′-hydroxymyristicin glucuronide was linear with time and the S9 protein concentration under the experimental conditions described. All samples were centrifuged for 5 min at 16,000×g, and the supernatant was stored at −20 °C until ultra-performance liquid chromatography (UPLC) analysis.
1′-Hydroxymyristicin glucuronide was estimated based on the comparison of the peak area of the formed metabolite to the calibration curve of 1′-hydroxymyristicin at a wavelength of 210 nm. The flow rate was 0.6 ml/min. The gradient was made using a mixture of ACN and ultrapure water containing 0.1 % (v/v) TFA.

[2] = Microsomal conversion of myristicin, human liver microsomes; type: in vitro ADME
Experimental: First, it was determined which organs are involved in the biotransformation of myristicin in rat and human. For this purpose, liver, kidney, lung, and small intestine microsomes from male Sprague–Dawley rat and pooled gender human were used. Incubations were performed by adding myristicin to incubation mixtures containing 1 mg/mL of the microsomal protein preparations and 3 mM NADPH in 0.2 M Tris–HCl (pH 7.4). After 1 min of pre-incubation at 37 °C, myristicin (final concentration, 1000 μM) was added from a 100 times concentrated stock solution in DMSO so that the final DMSO content was 1 % (v/v). Incubations were carried out for 30 min after which the reactions were terminated by adding 25 µl (0.25 times the incubation volume) of ice-cold ACN. Samples were centrifuged for 5 min at 13,000×g, and the supernatant was stored at −20 °C until UPLC analysis. As metabolism of myristicin was observed only in incubations with liver microsomes for male rats and pooled gender human, the determination of kinetic constants for the formation of microsomal metabolites was performed only for the liver fractions. Incubations to determine kinetic constants were performed following the conditions described above using final concentrations of myristicin from 25 to 1000 μM for rat and human liver. In all incubations, the final concentration of DMSO, in which myristicin was dissolved, was kept at 1 % (v/v). The formation of different microsomal metabolites was linear with time and microsomal protein concentration under the conditions described. Blank incubations were performed in the absence of the cofactor NADPH. All incubations were performed in triplicate.
Secondary metabolism of the relevant 1′-hydroxy metabolite of myristicin was taken into account by determining the kinetic constants for its conversion in (a) glucuronidation, (b) sulfation, and (c) oxidation, again under conditions that allowed adequate definition of kinetic constants and with <10 % substrate conversion. Incubation samples were subjected to UPLC analysis that was performed as described previously (Punt et al. [2008]). Identification was achieved by comparing the UV spectra of the formed metabolites to the spectra of the synthesized 1′-hydroxymyristicin and 1′-oxomyristicin reference standards. Quantification of all formed metabolites was done by comparing the peak areas to those of calibration curves of the corresponding reference compounds, determined using UPLC with photodiode array detection (UPLC-PDA). The UPLC system was composed of a Waters (Waters, Milford, MA) Acquity solvent manager, sample manager, and photodiode array detector, equipped with Water Acquity UPLC BEH C18 column.
The gradient for analysis of microsomal metabolites was performed with 100 % ACN and ultrapure water containing 0.1 % (v/v) TFA. The flow rate was 0.6 ml/min. The gradient started at 10 % ACN, increased to 50 % ACN over 4 min, increased to 80 % over 0.5 min, followed by decrease to 10 % ACN over 0.5 min, and finally kept at 10 % for 1 min.

SMILES: C=CC(O)c1cc(OC)c2c(c1)OCO2 (stereo not drawn) [1′-Hydroxymyristicin, 1′-hydroxymyristicin]
- Km at 30 min ([1]; male, Sprague-Dawley, rat, pH 7.4, 1′-hydroxymyristicin to its glucuronide, S9, UDPGA, read-out: Km): 836 µM
- catalytic efficiency of glucuronidation, fold higher in male rats than in human ([1]; rat vs human): 400 fold
- Vmax ([2]; formation of the metabolite from myristicin, NADPH, mean of three ± SD): 0.17 ± 0.03 nmol min^−1 (mg microsomal or S9 protein)^−1
- In vitro catalytic efficiency ([2]; formation of the metabolite from myristicin, Vmax/Km × 1000): 0.726 μl min^−1 (mg microsomal or S9 protein)^−1
- Scaled Vmax, in vivo ([2]; from myristicin, microsomal protein yield 32 mg/g liver): 0.326 μmol/h/g tissue
- In vivo catalytic efficiency ([2]; from myristicin, scaled Vmax/Km): 0.0014 ml/h/g tissue
